# Reference: paper PMC12845078 (Pharmaceuticals, 2025)
# Assays:
# [1] = tested on: CYP enzymes of MT 6-hydroxylation; experiment: in vitro; details: human, liver microsomes, probe melatonin (MT) 2 μM, 6-hydroxylation to 6-HMT, IC50 Ratio (IC50 shift), HLM, 30 min pre-incubation with/without NADPH
# Procedure: (§1) The reaction was initiated by adding pre-warmed NADPH (control groups lacked NADPH). The final incubation mixture contained 100 mM PBS, 5 mM MgCl2, liver microsomes (0.5 mg/mL), 1 mM NADPH, and 0.2% BSA. […] Concentrations in beagle dog microsomal incubations were 0, 0.125, 0.25, 0.5, 1, 2, 4, 8, 16, and 32 μM. […] All samples were prepared in triplicate. The concentration of 6-HMT was quantified using LC-MS/MS.
# (§2) Competitive inhibition and time-dependent inhibition assays: The production of 6-HMT without inhibitors was set as 100%.
# [2] = tested on: CYP enzymes of MT 6-hydroxylation; experiment: in vitro; details: rat, liver microsomes, probe melatonin (MT) 2 μM, 6-hydroxylation to 6-HMT, IC50 Ratio (IC50 shift), RLM, 30 min pre-incubation with/without NADPH
# Procedure: as §1, §2
# [3] = biological target: T1, CYP enzymes involved in melatonin 6-hydroxylation (Canis lupus familiaris, UniProt P56592); experiment: Competitive inhibition of CBD on MT 6-hydroxylation, beagle liver microsomes; assay type: in vitro ADME; details: dog, probe melatonin (MT) 1 μM, 6-hydroxylation to 6-HMT
# T1 sequence (P56592 2-512): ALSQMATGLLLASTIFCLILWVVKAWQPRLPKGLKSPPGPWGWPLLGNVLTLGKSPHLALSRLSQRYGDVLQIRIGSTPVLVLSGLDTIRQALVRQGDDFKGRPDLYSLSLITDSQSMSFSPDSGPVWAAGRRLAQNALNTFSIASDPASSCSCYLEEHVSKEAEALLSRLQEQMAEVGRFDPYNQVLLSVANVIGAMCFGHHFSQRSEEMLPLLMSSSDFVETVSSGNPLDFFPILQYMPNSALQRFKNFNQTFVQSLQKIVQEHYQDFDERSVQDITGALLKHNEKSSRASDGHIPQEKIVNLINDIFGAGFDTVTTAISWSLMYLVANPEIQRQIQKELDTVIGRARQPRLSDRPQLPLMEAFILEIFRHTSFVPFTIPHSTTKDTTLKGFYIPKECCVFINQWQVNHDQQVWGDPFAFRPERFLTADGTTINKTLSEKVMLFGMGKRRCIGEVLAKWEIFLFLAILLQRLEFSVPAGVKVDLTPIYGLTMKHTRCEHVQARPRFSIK
# Procedure: The final incubation system contained 100 mM PBS, 5 mM MgCl2, 0.5 mg/mL liver microsomal protein, and 1 mM NADPH. […] The final concentration of MT was 1 μM.
smiles,measurement,setting,value
"C=C(C)[C@@H]1CCC(C)=C[C@H]1c1c(O)cc(CCCCC)cc1O [CBD, Cannabidiol]",IC50 shift at 30 min,[1],2.55
same,IC50 shift at 30 min,[2],1.81
same,IC50 at 30 min,"[3]; IC50, beagle, as listed in Table 6 for static DDI model",0.65 µM
same,IC50 at 30 min,"[3]; IC50, inhibition of MT 6-hydroxylation, DLM, MT 1 μM",3.42 ± 1.3 µM
